Drawing on patent publication US5047521A, “5-fluorouracil derivatives” (Otsuka Pharmaceutical Co., Ltd., priority 1986, dated 1991), this text covers ED50 for one compound.

The test deals with Sarcoma-180. Nature of the test: Pharmacological Test I: tumor weight in ICR mice subcutaneously transplanted with Sarcoma-180, oral administration. It counts as in vivo. Particulars: Mus musculus, Sarcoma-180, 240 h, once a day for 7 consecutive days, tumor weight on 10th day after transplantation, read-out: ED50 (50% tumor inhibition dose, T/C = 0.5). Here is the method:
Sarcoma-180 subcultured in an ascites of ICR mice was diluted with a physiological saline solution and subcutaneously transplanted into the backs of ICR mice in an amount of 2×10^7 cells each. Twenty-four hours after the transplantation, a test compound suspended in a 5% solution of gum arabic was orally administered to each of mice once a day for 7 consecutive days.
The solid tumor was isolated from under the dorsal skin of mice on the 10th day after the transplantation to measure the weight of the tumor. There was determined the ratio (T/C) of the weight of tumor (T) cut out from the group of mice treated with the test compound to the weight of tumor (C) from the group of mice not treated therewith. The 50% tumor inhibition dose (ED50 value) in which T/C is 0.5 was determined from the dose-response curve of dosage and the ratio (T/C).

Consider `CCC(=O)OC[C@H]1O[C@@H](n2cc(F)c(=O)[nH]c2=O)C[C@@H]1OCc1cccs1`, for which the ED50 stood at 2 mg/kg.
